Source: US20120164104A1, “Composition and Methods of Treating Viral Infections and Viral Induced Tumors” (Chimerix, Inc., priority 2009, published 2012)

Key:
C33A = assay: Cell proliferation assay (MTS or SRB), C33A; assay type: cell-based, human; conditions: Cervical, 3 days, read-out: IC50 (cell growth inhibition)
Protocol: (§1) In vitro cell proliferation assays were performed using a 96-well plate based MTSassay (CellTiter 96° AqueousOne Solution Cell Proliferation Assay, Promega) or SRB (Sulforhodamine-B) assay (1-3). Briefly, cells were plated in 100 μl medium on day 0 in 96-well microtiter plates (Falcon #3072). On day 1, 10 μl of serial dilutions of each compound (Nine 1:2 dilutions with a starting concentration of 100 μM; in some cases, a starting concentration of 400 μM (CMX001 or Cidofovir) or 1 μM (some standard agents)) were added in triplicates to the plates. For standard agents using DMSO as solvent, serial dilutions of DMSO with a starting concentration of 0.5% were also included as a vehicle control.
(§2) After incubation for 3 days at 37° C. in a humidified incubator, viable cells were measured either by MTS or SRB assay. For MTS assay, 20 μl of a 20:1 mixture of (3-(4,5-dimethylthiazol-2-yl)-5-(3-carboxymethoxyphenyl)-2-(4-sulfophenyl)-2H-tetrazolium, inner salt (MTS, 2 mg/ml) and an electron coupling reagent, phenazine methosulfate (PMS, 0.92 mg/ml in DPBS), was added to each well and incubated for 3 hours at 37° C. Absorbance was measured using a BioTek Synergy™ HT Multiple Detection microplate reader at 490 nm. For SRB assay, cells were fixed in situ with 50 μL of cold trichloroacetic acid (TCA, final concentration at 10% w/v) for 60 minutes. Cells were then washed 5 times with H2O and air-dried.
(§3) Next, cells were stained with 20 μL of 0.2% SRB in 1% acetic acid and incubated at room temperature for 30 minutes and unbound SRB was removed by washing 5 times with 1% acetic acid and air-dried. Finally, bound SRB stain was solubilized in 50 μL of 50 μM Tris buffer before taking an optical density measurement at 570 nm using the BioTek microplate reader. The growth inhibition data were expressed as the percentage of cell survival calculated from the background corrected absorbance. The surviving fraction of cells was determined by dividing the mean absorbance values of the test agent-treated samples by the mean absorbance values of untreated control. […]

SiHa = assay: Cell proliferation assay (MTS or SRB), SiHa; assay type: cell-based, human; conditions: Cervical, 3 days, read-out: IC50 (cell growth inhibition)
Protocol: as §1, §2, §3

SK-OV-3 = assay: Cell proliferation assay (MTS or SRB), SK-OV-3; assay type: cell-based, human; conditions: SK-OV-3, Ovarian, 3 days; read-out: IC50 (cell growth inhibition)
Protocol: as §1, §2, §3

OVCAR-3 = assay: Cell proliferation assay (MTS or SRB), OVCAR-3; assay type: cell-based, human; conditions: OVCAR-3, Ovarian, 3 days; read-out: IC50 (cell growth inhibition)
Protocol: as §1, §2, §3

A2058 = assay: Cell proliferation assay (MTS or SRB), A2058; assay type: cell-based; conditions: Homo sapiens, 72 h; A2058, Skin (melanoma), 3 days; read-out: IC50 (cell growth inhibition)
Protocol: as §1, §2
(§4) Next, cells were stained with 20 μL of 0.2% SRB in 1% acetic acid and incubated at room temperature for 30 minutes and unbound SRB was removed by washing 5 times with 1% acetic acid and air-dried. Finally, bound SRB stain was solubilized in 50 μL of 50 μM Tris buffer before taking an optical density measurement at 570 nm using the BioTek microplate reader. The growth inhibition data were expressed as the percentage of cell survival calculated from the background corrected absorbance. The surviving fraction of cells was determined by dividing the mean absorbance values of the test agent-treated samples by the mean absorbance values of untreated control.
(§5) Raw data were acquired using a BioTek Synergy™ HT Multiple Detection microplate reader and imported into Microsoft Excel for analysis. The average signal of each treatment was calculated from the triplicates after subtracting the blank signals. The percentage survival values were calculated using the following formula: % survival=(average signal of the drug treatment/average signal of untreated controls)×100. The data were finally imported into the Prism 4 software (GraphPad Software, San Diego, Calif.) to generate the dose-activity curves using non-linear regression curve fit and to calculate the IC50 values.

SK-MEL-2 = assay: Cell proliferation assay (MTS or SRB), SK-MEL-2; assay type: cell-based; conditions: Homo sapiens, 72 h; SK-MEL-2, Skin (melanoma), 3 days; read-out: IC50 (cell growth inhibition)
Protocol: as §1, §2, §4, §5

DU 145 = assay: Cell proliferation assay (MTS or SRB), DU 145; assay type: cell-based; conditions: Homo sapiens, 72 h; DU 145, Prostate, 3 days; read-out: IC50 (cell growth inhibition)
Protocol: as §1, §2, §3

PC-3 = assay: Cell proliferation assay (MTS or SRB), PC-3; assay type: cell-based; conditions: Homo sapiens, 72 h; PC-3, Prostate, 3 days; read-out: IC50 (cell growth inhibition)
Protocol: as §1, §2, §3

MDA-231 = assay: Cell proliferation assay (MTS or SRB), MDA-231; assay type: cell-based; conditions: Homo sapiens, MDA-MB-231, 72 h; MDA-231, Breast, 3 days; read-out: IC50 (cell growth inhibition)
Protocol: as §1, §2, §3

MCF-7 = assay: Cell proliferation assay (MTS or SRB), MCF-7; assay type: cell-based; conditions: Homo sapiens, MCF7, 72 h; MCF-7, Breast, 3 days; read-out: IC50 (cell growth inhibition)
Protocol: as §1, §2, §3

H460 = assay: Cell proliferation assay (MTS or SRB), H460; assay type: cell-based; conditions: Homo sapiens, NCI-H460, 72 h; H460, Lung, 3 days; read-out: IC50 (cell growth inhibition)
Protocol: as §1, §2, §3

A549 = assay: Cell proliferation assay (MTS or SRB), A549; assay type: cell-based; conditions: Homo sapiens, 72 h; A549, Lung, 3 days; read-out: IC50 (cell growth inhibition)
Protocol: as §1, §2, §3

Caki-1 = assay: Cell proliferation assay (MTS or SRB), Caki-1; assay type: cell-based; conditions: Homo sapiens, 72 h; Caki-1, Kidney, 3 days; read-out: IC50 (cell growth inhibition)
Protocol: as §1, §2, §3

Caki-2 = assay: Cell proliferation assay (MTS or SRB), Caki-2; assay type: cell-based; conditions: Homo sapiens, 72 h; Caki-2, Kidney, 3 days; read-out: IC50 (cell growth inhibition)
Protocol: as §1, §2, §3

SCaBER = assay: Cell proliferation assay (MTS or SRB), SCaBER; assay type: cell-based; conditions: Homo sapiens, 72 h, Bladder, 3 days, read-out: IC50 (cell growth inhibition)
Protocol: as §1, §2, §3

SW 780 = assay: Cell proliferation assay (MTS or SRB), SW 780; assay type: cell-based; conditions: Homo sapiens, SW780, 72 h; SW 780, Bladder, 3 days; read-out: IC50 (cell growth inhibition)
Protocol: as §1, §2, §3

SK-HEP-1 = assay: Cell proliferation assay (MTS or SRB), SK-HEP-1; assay type: cell-based; conditions: Homo sapiens, SK-HEP1, 72 h; SK-HEP-1, Liver, 3 days; read-out: IC50 (cell growth inhibition)
Protocol: as §1, §2, §3

Hep G2 = assay: Cell proliferation assay (MTS or SRB), Hep G2; assay type: cell-based; conditions: Homo sapiens, HepG2, 72 h; Hep G2, Liver, 3 days; read-out: IC50 (cell growth inhibition)
Protocol: as §1, §2, §3

PANC-1 = assay: Cell proliferation assay (MTS or SRB), PANC-1; assay type: cell-based; conditions: Homo sapiens, 72 h; PANC-1, Pancreatic, 3 days; read-out: IC50 (cell growth inhibition)
Protocol: as §1, §2, §3

MIA PaCa-2 = assay: Cell proliferation assay (MTS or SRB), MIA PaCa-2; assay type: cell-based; conditions: Homo sapiens, 72 h; MIA PaCa-2, Pancreatic, 3 days; read-out: IC50 (cell growth inhibition)
Protocol: as §1, §2, §3

HT-29 = assay: Cell proliferation assay (MTS or SRB), HT-29; assay type: cell-based, human; conditions: HT-29, Colon, 3 days; read-out: IC50 (cell growth inhibition)
Protocol: as §1, §2, §3

HCT-116 = assay: Cell proliferation assay (MTS or SRB), HCT-116; assay type: cell-based, human; conditions: HCT-116, Colon, 3 days; read-out: IC50 (cell growth inhibition)
Protocol: as §1, §2, §3

BK virus = assay: Antiviral activity against BK virus in RPTEC cells (viral DNA by qPCR, 5 days); assay type: cell-based; conditions: for EC50: Betapolyomavirus hominis, RPTEC, RPTEC cells
Protocol: In order to test the activity of CMX001 to inhibit replication of BK virus, stocks of BK virus were prepared in HFF cells and dilutions of the virus stocks were used to infect primary human renal tubular epithelial cells (RPTECs). CMX001 were then added to the wells containing the infected cells and the plates were incubated for 5 days. Total DNA was prepared from the plates and viral DNA was quantified by qPCR.

Molecule `N.N.[Cl][Pt][Cl]` [Cisplatin] has an IC50 (C33A) of 1200 nM, an IC50 (SiHa) of 15500 nM and an IC50 (SK-OV-3) of 9200 nM. It also gave an IC50 (OVCAR-3) of 4900 nM.

Work on `CN(C)/N=N/c1[nH]cnc1C(N)=O` [DTIC, Dacarbazine] yielded an IC50 (A2058) of over 100000 nM and an IC50 (SK-MEL-2) of over 100000 nM.

`CC(=O)O[C@@]12CO[C@@H]1C[C@H](O)[C@@]1(C)C(=O)[C@H](O)C3=C(C)[C@@H](OC(=O)[C@H](O)[C@@H](NC(=O)OC(C)(C)C)c4ccccc4)C[C@@](O)([C@@H](OC(=O)c4ccccc4)[C@H]21)C3(C)C` [Docetaxel] was tested, and the IC50 (DU 145) was 2.4 nM, the IC50 (PC-3) was 1.1 nM and the IC50 (MDA-231) was 2.8 nM. The IC50 (MCF-7) was 15 nM, the IC50 (H460) was 4.2 nM and the IC50 (A549) was 1.4 nM.

`COc1cccc2c1C(=O)c1c(O)c3c(c(O)c1C2=O)C[C@@](O)(C(=O)CO)C[C@@H]3O[C@H]1C[C@H](N)[C@H](O)[C@H](C)O1` [Doxorubicin] showed an IC50 (Caki-1) of 74 nM, an IC50 (Caki-2) of 1230 nM and an IC50 (SCaBER) of 60 nM. It also gave an IC50 (SW 780) of 160 nM, an IC50 (SK-HEP-1) of 29 nM and an IC50 (Hep G2) of 50 nM.

Molecule `Nc1ccn([C@@H]2O[C@H](CO)[C@@H](O)C2(F)F)c(=O)n1` [Gemcitabine] has an IC50 (PANC-1) of 130 nM and an IC50 (MIA PaCa-2) of 29 nM.

With `O=C1[O][Pt]2([NH][C@@H]3CCCC[C@H]3[NH]2)[O]C1=O` [Oxaliplatin] the IC50 (HT-29) was 360 nM and the IC50 (HCT-116) was 480 nM.

For `Nc1nc(O)c2ncn(COC(CO)CO)c2n1` [ganciclovir], the EC50 (BK virus; virus dilution 1:10) was 89000 nM, the EC50 (BK virus; virus dilution 1:50) was over 100000 nM and the EC50 (BK virus; virus dilution 1:100) was 70800 nM. For the same molecule, the “activity against BK virus replication” value (BK virus; RPTECs, in words) was “essentially inactive”.

For `Cn1nnc2c(C(N)=O)ncn2c1=O` [temozolomide], the IC50 (A2058) was over 100000 nM and the IC50 (SK-MEL-2) was over 100000 nM.
